This is an account of results in patent US9428445B2, “Amine compounds and their use as zero or low VOC neutralizers” (ANGUS Chemical Company, priority 2012, dated 2016).

Common to all, as to assay type: physicochemical
A short description of data set [1]: Neutral equivalent by titration. As to the method:
(§1) Also using titration, the neutral equivalent is determined to be 168, which matches the molecule's molecular weight. However, upon inclusion into a paint formulation, slightly less (2%) of this molecule is needed to regulate pH than a control compound (2-amino-2-ethyl-1,3-propanediol (AEPD)) with a measured neutralization equivalent of 124. Thus, the second pKa contributes to pH regulation and contributes to the value of the compound as a neutralizer in paint formulations.

The nature of the next data set: Thermal analysis (TGA). The text has this: (§2) Thus, this material can be classified as a zero VOC using any of the three methods outlined in CARB Method 310.
The nature of data set [2]: VOC determination per CARB Method 310 (vapor pressure, GC test). As to the method:
Zero VOC can be defined in one of three ways according to California Air Resources Board (CARB) Method 310 for VOC determination: the vapor pressure can be below 0.1 mm Hg at 20° C., the boiling point can be above 216° C., or the compound must pass a gas chromatograph test (EPA Method 18, 8240B, 8260B,
as §2

Data set [3] in a line: Acid dissociation constants by standard titration method. As to conditions: read-out: acid dissociation constant (pKa). As to the method:
as §1

Counter-ions that a name gives are not always drawn. Like-named read-outs stand apart in the source and are kept apart here.

For orientation: pKa means the negative logarithm of the acid dissociation constant.

As to `CCC(N)(CO)CO` [AEPD, 2-amino-2-ethyl-1,3-propanediol, reference compound], in data set [1], the “neutral equivalent / neutralization equivalent” value came out at 124.
Consider `CC(C)(N)CNCC(=O)O` [Example 1, N-[2-(amino)-2-methylpropyl]-glycine (Sodium Salt)], for which, in “Thermal analysis (TGA)”, the boiling point entry is recorded as “no boiling point” and the decomposition temperature was greater than 275 °C. The vapor pressure result in data set [2] is “no discernable vapor pressure”. Besides, in data set [2] (any of the three methods outlined in CARB Method 310), the VOC classification result is “zero VOC”. Further, the “elution on the GC” value in data set [2] (cannot be vaporized, GC testing methods for CARB compliance) is recorded as “does not elute”. In data set [3] (primary amine), the pKa was 9.9. Moreover, in data set [3] (sodium carboxylate), the pKa was found to be 6.1. The “neutral equivalent / neutralization equivalent” value in data set [1] stood at 168.
